Drawing on ChEMBL document CHEMBL3714749, “Quinoxaline derivatives as gpr6 modulators” (2014), this text covers IC50 for 90 compounds.

For the assay, the target named is G-protein coupled receptor 6 (Homo sapiens, UniProt P46095). Nature of the assay: Activity at GPR6 (unknown origin) expressed in CHOK1 cells assessed as inhibition of constitutive cAMP activity incubated for 45 mins by HTRF based cAMP detection assay. In kind it is functional, cell-based, CHO-K1. In general terms: Time-resolved FRET reads energy transfer from a long-lived donor to a nearby acceptor.
G-protein coupled receptor 6, sequence (P46095 whole entry): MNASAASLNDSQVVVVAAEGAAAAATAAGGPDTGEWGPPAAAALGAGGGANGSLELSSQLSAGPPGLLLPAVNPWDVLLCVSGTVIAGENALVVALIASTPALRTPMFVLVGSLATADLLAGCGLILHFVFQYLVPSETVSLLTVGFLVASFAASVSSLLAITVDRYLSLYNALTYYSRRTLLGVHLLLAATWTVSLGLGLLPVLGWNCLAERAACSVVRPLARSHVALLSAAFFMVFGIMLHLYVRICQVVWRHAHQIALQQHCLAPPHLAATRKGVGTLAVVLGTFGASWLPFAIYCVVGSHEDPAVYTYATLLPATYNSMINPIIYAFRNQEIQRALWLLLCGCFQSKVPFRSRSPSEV
Usually IC50 stands for the concentration at which inhibition is half-maximal. Consider `C[C@@H](CO)Nc1nc2ccccc2nc1N1CCN(Cc2cc(Cl)ccc2Cl)CC1`, for which the IC50 amounted to 1570 nM.

For the compound `O=C(c1ccc(F)c(F)c1)C1CCN(c2nc3cnccc3nc2NC2CC2)CC1`, the IC50 stood at 8390 nM.

On to `O=C(c1ccccc1Cl)C1CCN(c2nc3cnccc3nc2NC2CC2)CC1`, for which the IC50 came out at 67 nM.

On to `N#Cc1ccc2nc(NCCF)c(N3CCN(C(=O)c4ccc(Cl)cc4)CC3)nc2c1`, for which the IC50 amounted to 960 nM.

Consider `Clc1ccc(Cl)c(CN2CCN(c3nc4cnccc4nc3NC3CC3)CC2)c1`, for which the IC50 was found to be 32 nM.

`Fc1cc(F)c(OC2CCN(c3nc4cnccc4nc3NC3CC3)CC2)c(F)c1`: the IC50 turned out to be 170 nM.

Regarding `Fc1ccc(Cl)cc1CN1CCN(c2nc3cnccc3nc2NC2CC2)CC1`, the IC50 is 29 nM.

Regarding `N#Cc1cccc(C(=O)C2CCN(c3nc4cnccc4nc3NC3CC3)CC2)c1`, the IC50 amounted to 7210 nM.

Regarding `O=C(c1nccc2nc(NC3CC3)c(N3CCC([C@H](F)c4ccc(F)cc4F)CC3)nc12)N1CCOCC1`, the IC50 is 6 nM.

In the case of `Cc1nnc(Nc2nc3ccccc3nc2N2CCN(Cc3cc(Cl)ccc3Cl)CC2)nc1C`, the IC50 is 17800 nM.

In the case of `COc1ccc(CN2CCN(c3nc4cnc(N5CCOCC5)cc4nc3NC3CC3)CC2)c(F)c1`, the IC50 turned out to be 92 nM.

For `N#Cc1ccc2nc(NCCC(F)(F)F)c(N3CCC(Oc4ccc(F)cc4F)CC3)nc2c1`, the IC50 is 160 nM.

As for `Fc1ccc(CC2CCN(c3nc4cc(F)ccc4nc3NC3CC3)CC2)c(F)c1`, the IC50 is 72 nM.

Turning to `Clc1ccccc1OC1CCN(c2nc3cnccc3nc2NC2CC2)CC1`, the IC50 amounted to 1510 nM.

For the compound `CC(C)Nc1nc2ccc(C#N)cc2nc1N1CCC([C@@H](F)c2ccc(F)cc2F)CC1`, the IC50 came to 49 nM.

Take `COc1ccc(C(=O)C2CCN(c3nc4cnncc4nc3NC(C)C)CC2)c(F)c1`: the IC50 came to 54 nM.

For the compound `Fc1cc(Cl)ccc1OC1CCN(c2nc3cnncc3nc2NC2CC2)CC1`, the IC50 was determined as 30 nM.

For the compound `Clc1ccc(Cl)c(CN2CCN(c3nc4ccccc4nc3Nc3ccccn3)CC2)c1`, the IC50 came out at 3290 nM.

Regarding `Cc1nccc2nc(NC3CC3)c(N3CCC(Oc4ccc(F)cc4F)CC3)nc12`, the IC50 is 18 nM.

In the case of `Oc1ccc(OC2CCN(c3nc4ccncc4nc3NC3CC3)CC2)c(F)c1`, the half-maximal inhibitory concentration (IC50) was determined as 54 nM.

For the compound `O=C(c1cc(F)ccc1Cl)C1CCN(c2nc3cnccc3nc2NC2CC2)CC1`, the IC50 stood at 62 nM.

On to `CC(C)OCCNc1nc2ccccc2nc1N1CCN(Cc2cc(Cl)ccc2Cl)CC1`, for which the IC50 was 3330 nM.

Consider `COc1ccc(CC2CCN(c3nc4cnc(C#N)cc4nc3NC(C)C)CC2)c(F)c1`, for which the IC50 turned out to be 26 nM.

On to `Cc1cc2nc(NC3CC3)c(N3CCC([C@H](F)c4cc(F)ccc4F)CC3)nc2cn1`, for which the 50% inhibitory concentration (IC50) is 11 nM.

For `N#Cc1ccc2nc(Nc3cccnc3)c(N3CCC(Cc4ccc(F)cc4F)CC3)nc2c1`, the concentration for half-maximal inhibition (IC50) turned out to be 390 nM.

`O=S(=O)(c1ccccc1)N1CCN(c2nc3cc(F)ccc3nc2NC2CC2)CC1`: the IC50 was determined as 9440 nM.

As to `O=C(c1c(F)cc(Cl)cc1F)C1CCN(c2nc3cnccc3nc2NC2CC2)CC1`, the IC50 was 200 nM.

Consider `Clc1ccc(OC2CCN(c3nc4cnccc4nc3NC3CC3)CC2)cc1`, for which the IC50 worked out at 310 nM.

As to `COc1ccc(OC2CCN(c3nc4cnccc4nc3NC3CC3)CC2)cc1`, the IC50 worked out at 190 nM.

In the case of `Clc1ccc(Cl)c(CN2CCN(c3nc4ccccc4nc3NC3CCOCC3)CC2)c1`, the IC50 came out at 4070 nM.

On to `O=C(c1cccc(Cl)c1)C1CCN(c2nc3cnccc3nc2NC2CC2)CC1`, for which the IC50 stood at 11000 nM.

Take `Clc1ccc(Cl)c(CN2CCN(c3nc4ccccc4nc3Nc3cnccn3)CC2)c1`: the IC50 came out at 2340 nM.

For the compound `N#Cc1ccc2nc(Nc3ccon3)c(N3CCN(C(=O)c4ccc(Cl)cc4)CC3)nc2c1`, the IC50 worked out at 15400 nM.

For `Fc1ccc(CN2CCN(c3nc4ccncc4nc3NCC(F)F)CC2)c(F)c1`, the IC50 was 230 nM.

Consider `Fc1ccc([C@H](F)C2CCN(c3nc4cnncc4nc3NC3CC3)CC2)c(F)c1`, for which the IC50 turned out to be 22 nM.

In the case of `Cc1cc2nc(NC3CC3)c(N3CCC(Cc4ccc(F)cc4F)CC3)nc2cn1`, the IC50 was found to be 20 nM.

In the case of `Fc1cc(F)c(CN2CCN(c3nc4cnccc4nc3NC3CC3)CC2)cc1F`, the IC50 came to 50 nM.

Consider `Cc1nccc2nc(NC3CC3)c(N3CCC(Cc4ccc(F)cc4F)CC3)nc12`, for which the IC50 worked out at 2 nM.

On to `Cc1ccc(C)c(CN2CCN(c3nc4cnccc4nc3NC3CC3)CC2)c1`, for which the IC50 is 380 nM.

Turning to `O=C(c1ccsc1)C1CCN(c2nc3cnccc3nc2NC2CC2)CC1`, the IC50 was 2290 nM.

As to `Cc1cccc(CN2CCN(c3nc4ccccc4nc3NC3CC3)CC2)c1C`, the IC50 was found to be 3640 nM.

Regarding `Cc1nccc2nc(NC3CC3)c(N3CCC(C(F)c4ccc(F)cc4F)CC3)nc12` (stereo not given), the IC50 turned out to be 9 nM.

Turning to `N#Cc1ccc2nc(N3CCN(Cc4cc(Cl)ccc4Cl)CC3)c(Nc3cccnc3)nc2c1`, the IC50 came out at 440 nM.

Regarding `O=C(c1cc2nc(NC3CC3)c(N3CCC([C@@H](F)c4ccc(F)cc4F)CC3)nc2cn1)N1CCC1F` (stereo not given in full), the IC50 stood at 26 nM.

On to `N#Cc1ccc2nc(NC3CC(=O)C3)c(N3CCN(Cc4cc(Cl)ccc4Cl)CC3)nc2c1`, for which the IC50 was determined as 97 nM.

`N#Cc1ccc2nc(NC3CC3)c(N3CCN(S(=O)(=O)c4ccc(Cl)cc4)CC3)nc2c1`: the IC50 was found to be 570 nM.

For `Cc1cc2nc(NC3CC3)c(N3CCC([C@@H](F)c4ccc(F)cc4F)CC3)nc2cn1`, the concentration for half-maximal inhibition (IC50) is 6 nM.

In the case of `N#Cc1ccc2nc(N3CCN(C(=O)c4ccc(Cl)cc4)CC3)c(NC3CC3)nc2c1`, the IC50 was 340 nM.

Consider `Fc1ccc(F)c(OC2CCN(c3nc4cnccc4nc3NC3CC3)CC2)c1`, for which the IC50 was 1100 nM.

As for `COc1ccc(OC2CCN(c3nc4cnncc4nc3NC3CC3)CC2)c(F)c1`, the IC50 came to 20 nM.

Take `COc1ccc2nc(N3CCN(Cc4cc(Cl)ccc4Cl)CC3)c(NC3CC3)nc2c1`: the IC50 turned out to be 3360 nM.

Consider `Fc1cnc(Cl)c(CN2CCN(c3nc4ccccc4nc3NC3CC3)CC2)c1`, for which the IC50 is 20400 nM.

In the case of `Fc1ccc(CN2CCN(c3nc4cnncc4nc3NC3CC3)CC2)c(F)c1`, the IC50 turned out to be 260 nM.

In the case of `Cc1cc(C(=O)N2CCN(c3nc4ccccc4nc3NC3CC3)CC2)ccc1Cl`, the IC50 is 720 nM.

As to `CSc1ccc(F)c(C(=O)C2CCN(c3nc4cnccc4nc3NC3CC3)CC2)c1`, the 50% inhibitory concentration (IC50) came to 478 nM.

On to `O=C(c1nccc2nc(NC3CC3)c(N3CCC([C@@H](F)c4ccc(F)cc4F)CC3)nc12)N1CCOCC1`, for which the IC50 was determined as 7 nM.

With `Clc1ccc(Cl)c(CN2CCN(c3nc4cccc(Br)c4nc3NC3CC3)CC2)c1`, the half-inhibitory concentration (IC50) came out at 1640 nM.

For the compound `Fc1ccc(CC2CCN(c3nc4ccncc4nc3NCC(F)F)CC2)c(F)c1`, the IC50 stood at 78 nM.

On to `COc1cccc(OC2CCN(c3nc4cnncc4nc3NC(C)C)CC2)c1`, for which the IC50 amounted to 1000 nM.

As to `N#Cc1cc2nc(NC3CC3)c(N3CCC([C@@H](F)c4ccc(F)cc4F)CC3)nc2cn1`, the IC50 stood at 17 nM.

For the compound `Fc1ccc(CC2CCN(c3nc4cc(F)c(F)cc4nc3NC3CC3)CC2)c(F)c1`, the IC50 was 140 nM.

On to `Fc1ccc([C@@H](F)C2CCN(c3nc4cnccc4nc3NC3CC3)CC2)c(F)c1`, for which the IC50 was 24 nM.

Take `Cc1cc(CN2CCN(c3nc4ccccc4nc3NC3CC3)CC2)no1`: the IC50 came to 105000 nM.

On to `N#Cc1cc2nc(NC3CC3)c(N3CCC(Cc4ccc(F)cc4F)CC3)nc2cn1`, for which the concentration for half-maximal inhibition (IC50) came out at 15 nM.

Consider `O=C(c1cc(Cl)ccc1F)C1CCN(c2nc3cnccc3nc2NC2CC2)CC1`, for which the IC50 was 35 nM.

`Clc1ccc(Cl)c(CN2CCN(c3nc4ccncc4nc3NC3CC3)CC2)c1`: the IC50 came to 56 nM.

With `CC(C)(C)Nc1nc2cc(C#N)ncc2nc1N1CCC(Oc2ccc(F)cc2F)CC1`, the IC50 was 538 nM.

As to `CC(C)Nc1nc2cnccc2nc1N1CCC(Oc2ccc(F)cc2F)CC1`, the IC50 was 20 nM.

Turning to `O=C(c1c(F)cccc1F)C1CCN(c2nc3cnccc3nc2NC2CC2)CC1`, the IC50 was determined as 2180 nM.

Regarding `CC(C)Nc1nc2cnncc2nc1N1CCC([C@@H](F)c2ccc(F)cc2F)CC1`, the IC50 was found to be 14 nM.

In the case of `Fc1ccc(F)c(C(F)C2CCN(c3nc4cnccc4nc3NC3CC3)CC2)c1` (stereo not given), the IC50 turned out to be 20 nM.

With `O=S(=O)(c1ccccc1)N1CCN(c2nc3ccccc3nc2Nc2cccnc2)CC1`, the IC50 was found to be 4630 nM.

As for `Fc1ccc(OC2CCN(c3nc4cnncc4nc3NC3CC3)CC2)c(F)c1`, the IC50 was 18 nM.

For `Fc1ccc(C(F)C2CCN(c3nc4cnc(Br)cc4nc3NC3CC3)CC2)c(F)c1` (stereo not given), the half-maximal inhibitory concentration (IC50) was determined as 29 nM.

Turning to `COCCNc1nc2ccc(C#N)cc2nc1N1CCC(Cc2ccc(F)cc2F)CC1`, the IC50 amounted to 250 nM.

For the compound `Fc1ccc(OC2CCN(c3nc4cc(Br)ccc4nc3NC3CC3)CC2)c(F)c1`, the half-maximal inhibitory concentration (IC50) is 1430 nM.

For the compound `N#Cc1ccc2nc(NC3CC3)c(N3CCN(S(=O)(=O)c4cccc(Cl)c4)CC3)nc2c1`, the half-inhibitory concentration (IC50) stood at 5620 nM.

With `N#Cc1ccc2nc(NCCC(F)(F)F)c(N3CCN(Cc4ccc(F)cc4F)CC3)nc2c1`, the IC50 amounted to 390 nM.

For `O=C(c1c(F)cccc1Cl)C1CCN(c2nc3cnccc3nc2NC2CC2)CC1`, the IC50 was determined as 4900 nM.

Take `N#Cc1ccc2nc(NCC(F)F)c(N3CCC(Cc4ccc(F)cc4F)CC3)nc2c1`: the IC50 was found to be 71 nM.

As to `O=C(c1csc(Cl)c1)C1CCN(c2nc3cnccc3nc2NC2CC2)CC1`, the IC50 amounted to 4810 nM.

Regarding `O=C(c1ccccc1Br)C1CCN(c2nc3cnccc3nc2NC2CC2)CC1`, the concentration for half-maximal inhibition (IC50) was 78 nM.

As for `N#Cc1ccc2nc(NC3CC3)c(N3CCC(Oc4ccc(F)cc4F)CC3)nc2c1`, the IC50 was 90 nM.

With `Fc1cc(F)c(CN2CCN(c3nc4ccncc4nc3Nc3cccnc3)CC2)cc1F`, the IC50 stood at 400 nM.

Consider `N#Cc1ccc2nc(NC3CC3)c(N3CCN(S(=O)(=O)c4ccc(C(F)(F)F)cc4Cl)CC3)nc2c1`, for which the IC50 came to 1300 nM.

Turning to `Clc1ccc(Cl)c(CN2CCN(c3nc4ccccc4nc3Nc3cccnn3)CC2)c1`, the IC50 was determined as 1670 nM.

As for `CC[C@H](C)Nc1nc2cnncc2nc1N1CCC(Oc2ccc(OC)cc2F)CC1`, the concentration for half-maximal inhibition (IC50) turned out to be 21 nM.

On to `COc1ccc(CN2CCN(c3nc4cnc(C(=O)N(C)C)cc4nc3NC3CC3)CC2)c(F)c1`, for which the IC50 was 939 nM.

Regarding `Fc1ccc(CC2CCN(c3nc4ccncc4nc3NC3CC3)CC2)c(F)c1`, the IC50 is 27 nM.

As for `CC(C)Nc1nc2cnncc2nc1N1CCC(C(F)c2ccc(F)cc2F)CC1` (stereo not given), the IC50 was determined as 6 nM.
